Results on three compounds are retold here after paper PMC2909451 (European journal of pharmaceutical sciences : official …, 2010).

Details in all cases: substrate uptake studies
In one experiment the target is T1, OCTN2 (Homo sapiens, UniProt O76082).
T1 sequence (O76082 1-557): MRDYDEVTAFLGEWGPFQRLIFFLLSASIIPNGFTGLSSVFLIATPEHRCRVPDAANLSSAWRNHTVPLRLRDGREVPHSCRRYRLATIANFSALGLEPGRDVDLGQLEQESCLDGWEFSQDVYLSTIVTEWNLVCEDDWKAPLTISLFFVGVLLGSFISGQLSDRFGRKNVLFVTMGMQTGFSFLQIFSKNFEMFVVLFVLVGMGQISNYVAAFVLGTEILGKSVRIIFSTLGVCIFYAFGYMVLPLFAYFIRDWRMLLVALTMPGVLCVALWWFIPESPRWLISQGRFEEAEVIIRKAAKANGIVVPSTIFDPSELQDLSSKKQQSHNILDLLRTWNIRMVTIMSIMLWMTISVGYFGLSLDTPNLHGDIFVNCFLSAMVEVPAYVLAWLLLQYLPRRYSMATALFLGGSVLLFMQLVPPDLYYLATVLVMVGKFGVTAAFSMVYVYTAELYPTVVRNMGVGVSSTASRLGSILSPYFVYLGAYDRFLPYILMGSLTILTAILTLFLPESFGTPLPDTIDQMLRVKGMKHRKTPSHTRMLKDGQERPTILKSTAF
Put plainly: L-carnitine uptake study. The experiment is classed as cell-based.

In a further experiment the target is EAAT4 (Rattus norvegicus, UniProt O35921).
EAAT4, sequence (O35921 whole entry): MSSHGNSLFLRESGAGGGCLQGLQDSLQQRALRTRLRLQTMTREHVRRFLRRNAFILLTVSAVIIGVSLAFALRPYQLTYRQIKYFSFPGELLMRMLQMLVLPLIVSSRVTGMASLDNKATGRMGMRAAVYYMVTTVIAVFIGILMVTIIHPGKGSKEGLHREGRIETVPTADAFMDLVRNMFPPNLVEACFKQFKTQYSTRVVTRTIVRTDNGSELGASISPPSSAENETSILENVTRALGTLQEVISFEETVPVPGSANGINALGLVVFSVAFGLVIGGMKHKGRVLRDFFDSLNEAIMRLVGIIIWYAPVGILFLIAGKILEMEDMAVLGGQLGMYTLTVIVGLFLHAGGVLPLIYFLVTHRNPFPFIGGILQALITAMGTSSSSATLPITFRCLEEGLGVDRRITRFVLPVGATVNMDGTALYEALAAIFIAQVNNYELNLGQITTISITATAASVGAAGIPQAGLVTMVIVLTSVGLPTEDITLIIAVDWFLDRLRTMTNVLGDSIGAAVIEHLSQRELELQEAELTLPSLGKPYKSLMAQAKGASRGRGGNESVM
The next experiment addresses ASBT (Homo sapiens, UniProt Q12908).

ASBT, sequence (Q12908 whole entry): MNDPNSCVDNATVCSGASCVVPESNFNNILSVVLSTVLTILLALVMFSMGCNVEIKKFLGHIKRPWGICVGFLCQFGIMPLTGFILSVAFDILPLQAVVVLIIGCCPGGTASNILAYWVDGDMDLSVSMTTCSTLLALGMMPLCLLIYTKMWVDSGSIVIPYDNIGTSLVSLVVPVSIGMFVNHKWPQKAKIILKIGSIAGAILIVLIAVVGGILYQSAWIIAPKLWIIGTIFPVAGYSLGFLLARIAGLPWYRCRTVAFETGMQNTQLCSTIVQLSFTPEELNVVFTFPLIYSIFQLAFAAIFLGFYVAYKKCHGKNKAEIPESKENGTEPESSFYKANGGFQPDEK

Consider `C[N+](C)(C)C[C@H](O)CC(=O)[O-]` [L-carnitine], for which the “Kt (Michaelis-Menten constant for transporter mediated transport)” value (from here on “Kt”) on OCTN2 amounted to 5.33 µM.
`N[C@@H](CCC(=O)O)C(=O)O` [glumatate, glutamate]: the “Kt” value on EAAT4 was 2.02 µM.
Regarding `C[C@H](CCC(=O)NCCS(=O)(=O)O)[C@H]1CC[C@H]2[C@@H]3[C@H](O)C[C@@H]4C[C@H](O)CC[C@]4(C)[C@H]3C[C@H](O)[C@]12C` [taurocholate], the “Kt” value at ASBT was determined as 5.03 µM.
